Where a name gives a salt, the structure may show the parent alone.
How the values were obtained:
[1] = Hygroscopicity (water absorbed); assay type: physicochemical
[2] = Chemical stability on storage at 25° C., 60% relative humidity (impurity concentrations); assay type: physicochemical; conditions: for Lactone impurity / M-2 impurity / Total impurities / Total impurities, number of peaks / Change of concentration of impurity M-2 relative to the initial concentration: 25° C.; for Lactone impurity / M-2 impurity / Total impurities / Total impurities, number of peaks: 60% RH; for Increase in the concentration of rosuvastatin lactone: after one month storage; for Change of concentration of impurity M-2 relative to the initial concentration: one month, 60% relative humidity
Procedure: Chemical stability of amorphous and crystalline Form I rosuvastatin zinc salts (2:1) has been determined by challenging said substances at the storage condition of 25° C., 60% relative humidity.

[3] = listed as amorphous rosuvastatin zinc salt (2:1)

| Amount of water absorbed [1, 3] [% by weight] | Lactone impurity ([2]; 1 month) [%] | M-2 impurity ([2]; 1 month) [%] | Total impurities ([2]; 1 month) [%] | Total impurities, number of peaks ([2]; 1 month) | Lactone impurity ([2]; Initial) [%] | M-2 impurity ([2]; Initial) [%] | Total impurities ([2]; Initial) [%] | Total impurities, number of peaks ([2]; Initial) | Increase in the concentration of rosuvastatin lactone [2, 3] | Change of concentration of impurity M-2 relative to the initial concentration ([2]; listed as amorphous form of rosuvastatin zinc salt) | Amount of water absorbed ([1]; listed as crystalline Form I rosuvastatin zinc salt (2:1)) [% by weight] | Total amount of the impurities and number of the individual impurities during storage, compared with the amorphous form ([2]; during storage) | Change of concentration of impurity M-2 relative to the initial concentration ([2]; listed as crystalline Form I substance) | Compound | Increase in the concentration of rosuvastatin lactone ([2]; listed as crystalline Form I of rosuvastatin zinc salt (2:1)) |
| --- | --- | --- | --- | --- | --- | --- | --- | --- | --- | --- | --- | --- | --- | --- | --- |
| 1.88 | 0.51 | 0.10 | 0.77 | (6 peaks) | 0.10 | 0.03 | 0.38 | (7 peaks) | five-fold increase | three-fold of the initial concentration | – | – | – | CC(C)c1nc(N(C)S(C)(=O)=O)nc(-c2ccc(F)cc2)c1/C=C/[C@@H](O)C[C@@H](O)CC(=O)O [Amorphous, 7-[4-(4-fluorophenyl)-6-isopropyl-2-(methanesulfonyl-methyl-amino)-pyrimidin-S-yl]-(3R,5S)-dihydroxy-hept-6-enoic acid zinc salt (2:1), reference compound] | – |
| – | 0.32 | 0.08 | 0.49 | (3 peaks) | 0.13 | 0.07 | 0.28 | (3 peaks) | – | – | 0.24 | significantly lower | practically unchanged | CC(C)c1nc(N(C)S(C)(=O)=O)nc(-c2ccc(F)cc2)c1/C=C/[C@@H](O)C[C@@H](O)CC(=O)O [Form I, 7-[4-(4-fluorophenyl)-6-isopropyl-2-(methanesulfonyl-methyl-amino)-pyrimidin-5-yl]-(3R,5S)-dihydroxy-hept-6-enoic acid zinc salt (2:1)] | much less prone to form lactone of rosuvastatin |

From patent US9023838B2, “Crystalline form I rosuvastatin zinc salt” (Egis Gyogyszergyar Nyilvanosan Muekoedoe, priority 2009, dated 2015)
